# Key:
# Wild-type KOR [1] = biological target: T1, Wild-type KOR (Homo sapiens, UniProt P41145); assay: biochemical; format: binding
# T1 construct: expressed in transfected cells; host or cells: COS-7 and CHO-KI (for OR1 and OR2)
# OR1 [2] = format: binding, human
# OR2 [3] = format: binding, human
# Wild-type KOR [4] = biological target: T1, Wild-type KOR; assay: Signaling (activation of G protein-mediated signals, adenylyl cyclase inhibition) by wild-type KOR; format: cell-based
# OR1 [5] = biological target: OR1 (Homo sapiens, UniProt P41145, G198V/DELINS201-226[…], form not given); assay: Signaling (activation of G protein-mediated signals, adenylyl cyclase inhibition) by OR1; format: cell-based
# Sequence of OR1 (Homo sapiens, UniProt P41145, G198V/DELINS201-226[…], form not given) (P41145 with tags, fused parts or gaps DELINS198-226[withheld], form open): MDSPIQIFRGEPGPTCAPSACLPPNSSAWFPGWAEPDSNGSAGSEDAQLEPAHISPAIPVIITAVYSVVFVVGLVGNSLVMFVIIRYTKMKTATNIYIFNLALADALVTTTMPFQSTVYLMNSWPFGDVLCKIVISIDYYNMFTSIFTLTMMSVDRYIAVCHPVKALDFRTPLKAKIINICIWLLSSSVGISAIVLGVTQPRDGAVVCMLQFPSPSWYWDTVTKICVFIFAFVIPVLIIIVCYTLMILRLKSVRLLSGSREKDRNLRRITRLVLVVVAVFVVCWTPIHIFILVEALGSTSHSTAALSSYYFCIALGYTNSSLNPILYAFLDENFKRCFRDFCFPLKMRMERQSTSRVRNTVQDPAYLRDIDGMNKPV
# OR1 [6] = assay: as above; format: cell-based, human; settings: relative to signal detected with wild-type KOR
# OR2 [7] = biological target: OR2 (Homo sapiens, UniProt P41145, G198V/DELINS201-226[…]/E297Q, form not given); format: cell-based; settings: read-out: EC50, signaling by OR2; signaling by OR2
# Sequence of OR2 (Homo sapiens, UniProt P41145, G198V/DELINS201-226[…]/E297Q, form not given) (P41145 with tags, fused parts or gaps DELINS198-226[withheld]/E297Q, form open): as the sequence (P41145 with tags, fused parts or gaps DELINS198-226[withheld], form open) above, with E294Q counted along it
# OR2 [8] = format: cell-based, human
# [9] = relative to signal detected with wild-type KOR
# T1 sequence (P41145 whole entry): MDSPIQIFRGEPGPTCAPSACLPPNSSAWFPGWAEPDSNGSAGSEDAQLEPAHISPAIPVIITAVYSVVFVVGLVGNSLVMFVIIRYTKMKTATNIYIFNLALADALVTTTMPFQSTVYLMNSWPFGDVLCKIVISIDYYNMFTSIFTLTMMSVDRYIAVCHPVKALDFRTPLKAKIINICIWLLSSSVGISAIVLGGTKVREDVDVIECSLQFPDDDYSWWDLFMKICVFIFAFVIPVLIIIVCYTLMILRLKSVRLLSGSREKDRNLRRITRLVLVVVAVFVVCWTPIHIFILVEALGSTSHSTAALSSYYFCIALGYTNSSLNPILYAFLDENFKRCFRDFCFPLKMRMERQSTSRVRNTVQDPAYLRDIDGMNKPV
compound,measurement,setting,value
"CCC12CCN(CC3(O)CC3)C(Cc3ccc(O)cc31)C2(C)C (stereo not drawn) [Bremazocine, bremazocine]","Fold decrease in binding, Wild-type KOR",Wild-type KOR [1],1 fold
same,Ki,Wild-type KOR [1],38 pM
same,Change in binding affinity of OR1 relative to native human KOR,OR1 [2],no significant change
same,"Fold decrease in binding, OR1",OR1 [2],1.7 fold
same,Change in binding affinity of OR2 relative to native human KOR,OR2 [3],no change
same,"Fold decrease in binding, OR2",OR2 [3],1.2 fold
same,EC50,Wild-type KOR [4],67 pM
same,"Fold decrease in signaling, Wild-type KOR",Wild-type KOR [4]; [9],1 fold
same,Inhibition of adenylyl cyclase by OR1 in response to ligand,OR1 [5]; dynorphin only at high concentrations,inhibits adenylyl cyclase
same,EC50,"OR1 [5]; read-out: EC50, signaling by OR1, signaling by OR1",68 pM
same,"Fold decrease in signaling, OR1",OR1 [6],1 fold
same,EC50,OR2 [7],340 pM
same,"Fold decrease in signaling, OR2",OR2 [8]; [9],5.17 fold
same,"Biochemical Signal, decrease (summary), OR2","OR2 [8]; summary table, ↓ = decrease versus wild-type KOR",↓5x
same,Amount of ligand required to activate the biochemical signal at OR2 compared to wild-type KOR,OR2 [8]; times more ligand than for wild type KOR,about 5 times

# Reference: patent publication US6518480B1 (priority 1996, dated 2003)
